Molecules are shown by their SMILES.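 Exposure lasted 48 hours, with cells grown in 96-well plates and compounds tested at five concentrations. At the GI50, growth is halved. TGI: total growth inhibition.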

A word on the GI50: it is the concentration that inhibits growth by half. The TGI is the concentration at which net growth stops. A low value points to more potent growth arrest.

Common to all, as to assay: DTP human tumour cell line panel, 48 h
Assay [1] concerns COLO 205 colon.
For assay [2], the system named is KM12 colon.
The test system of assay [3] is MALME-3M melanoma.
The test system of assay [4] is RPMI-8226 leukemia.
Assay [5] deals with SF-539 CNS.
The test system of assay [6] is SN12C renal.
Assay [7] has as its system SW-620 colon.
The test system of assay [8] is UACC-257 melanoma.
For assay [9], the system named is SNB-19 CNS.
Assay [10] has as its system LOX IMVI melanoma.

On to `O=C(CCc1nnc2s/c(=C\c3ccc(Cl)cc3Cl)c(=O)n12)Nc1cc(Cl)c(Cl)cc1Cl`, for which the GI50 in assay [1], in assay [2], in [3], in assay [4], in [5] and in assay [6] was > 100 µM each time. Also, the GI50 in assay [7] and in assay [8] was > 100 µM in each case. In addition, the TGI in assay [1], in assay [2], in assay [3], in [4], in assay [5] and in [6] was > 100 µM throughout. The TGI in [7] and in assay [8] was > 100 µM each time.
For the compound `CC(C)(C)C(=O)Cc1cc2c(cc1C(=O)O)S(=O)(=O)NC(C(C)(C)C)=C2`, the TGI in [1], in [2], in assay [3], in assay [4], in assay [6] and in assay [9] was > 100 µM in each case. Moreover, the TGI in assay [7] and in assay [8] was > 100 µM each time.
For the compound `COC(=O)C(I(OS(=O)(=O)c1ccc(C)cc1)c1ccccc1)=P(c1ccccc1)(c1ccccc1)c1ccccc1`, the TGI was 13.1 µM in assay [1]; 34.2 µM in assay [2]; 21.6 µM in assay [3]; 24.2 µM in assay [4]; 34.9 µM in assay [5]; > 100 µM in assay [6]. Moreover, the figures for the TGI in assay [9] and in assay [8] were > 100 µM and 37.1 µM, respectively.
As for `COc1cc(NS(C)(=O)=O)ccc1N1Cc2cnc3ccc4[nH]ccc1c4c23`, the TGI in [1] is > 100 µM; in [2], > 100 µM; in assay [10], 41.6 µM; in [4], 46.8 µM; in [6], 66.6 µM; in assay [9] it was > 100 µM. The TGI in assay [7] and in [8] was > 100 µM each time.
On to `CCOC(=O)C1(C/C=C\CBr)CCCCCCC1=O` (stereo unspecified), for which the TGI in [1], in assay [2], in assay [10], in [3], in [5] and in assay [6] was > 100 µM each time. The concentration for total growth inhibition (TGI) in assay [9], in assay [7] and in assay [8] was > 100 µM in each case.
With `Cc1cc(C)n(CN(Cn2nc(C)cc2C)c2ccc(N(Cn3nc(C)cc3C)Cn3nc(C)cc3C)cc2)n1`, the TGI in assay [1] stood at 31.5 µM; in [2], 58.2 µM; in [3], 41.8 µM; in [4], 40 µM; in assay [5], 35.3 µM; in assay [6] it was 51.9 µM. Moreover, the TGI in assay [9] was 64.5 µM; in [7], 61.4 µM; in [8], 40.6 µM.
As for `C=C(Cl)C(Cl)(CBr)CCC(Cl)C(C)C` (stereo unspecified), the TGI in [1] was determined as 10.3 µM; in assay [2], 6.11 µM; in assay [10] it was 26.2 µM; in assay [3] it was 28.4 µM; in assay [5], 2.59 µM; in assay [6] it was 33.2 µM. The TGI in assay [9] was found to be 14.2 µM; in assay [7], 11.8 µM; in assay [8] it was 6.02 µM.
With `N#C/C(=C/NC(=S)Nc1ccc(S(N)(=O)=O)cc1)C(N)=O`, the TGI in [1], in [2], in assay [3], in assay [4], in assay [5] and in assay [6] was > 100 µM each time. The TGI in assay [7] and in assay [8] was > 100 µM throughout.
In the case of `CC(C)(C)OC(=O)N1CC(COS(C)(=O)=O)c2ccc(O)cc21` (stereo unspecified), the TGI in assay [1] was 3.31 µM; in [2], 7.16 µM; in assay [3], 2.86 µM; in assay [4], 3.96 µM; in assay [5], 3.84 µM; in assay [6], 6.77 µM. Further, the TGI in assay [9] is 8.95 µM; in assay [7], 9.57 µM; in [8], 5.54 µM.
`CC(C)(C)OC(=O)N(CCCN)CCCCN(CCCN)C(=O)OC(C)(C)C`: the TGI in assay [1], in assay [2], in assay [10], in assay [4], in assay [5] and in [9] was > 100 µM throughout. Besides, the TGI in assay [7] and in assay [8] was > 100 µM in each case.
With `CC(C)OP(=O)(OC(C)C)c1ncn(-c2ccc([N+](=O)[O-])cc2)n1`, the TGI in [1], in assay [2], in assay [3], in [4], in [5] and in [6] was > 100 µM throughout. The TGI in [9], in assay [7] and in [8] was > 100 µM each time.
Regarding `COCN1C(=O)[C@@H]2C[C@@H](OC/C=C/CBr)CN2C(=O)c2ccccc21`, the TGI in assay [1] is 42.8 µM; in assay [2], 63.5 µM; in assay [10], 13.1 µM; in [3], 35.3 µM; in [5] it was 40.8 µM; in assay [6], 33.3 µM. In addition, the values for the TGI in [9], in assay [7] and in assay [8] were 67.2 µM, 45.6 µM and 37.6 µM, respectively.
For `CC(=S)NC1C(Oc2ccc3c(C)cc(=O)oc3c2)OC(CO)C(O)C1O` (stereo unspecified), the TGI in [2], in assay [10], in assay [4], in assay [5], in assay [6] and in [9] was > 100 µM in each case. Besides, the TGI in assay [7] and in [8] was > 100 µM in each case.
Take `CC(C)(Oc1ccc(C2C[C@H]2Cl)cc1)C(=O)O` (stereo partly specified): the TGI in assay [1], in assay [2], in assay [10], in [4], in assay [5] and in assay [6] was > 100 µM in each case. For the same compound, the TGI in [9], in assay [7] and in [8] was > 100 µM throughout.
With `c1ccc(C2(c3cc4ccccc4[nH]3)OCCO2)cc1`, the TGI is 65.2 µM in [1]; > 100 µM in assay [2]; > 100 µM in assay [10]; > 100 µM in [4]; > 100 µM in assay [5]; > 100 µM in assay [6]. For the same compound, the values for the TGI in assay [9], in [7] and in assay [8] were > 100 µM, > 100 µM and 99.8 µM, respectively.
Consider `COc1ccc2[nH]c3c(C)c4ccnc(NCCCN(C)CCCNC(=O)NCCCN(C)CCCNc5nccc6c(C)c7[nH]c8ccc(OC)cc8c7c(C)c56)c4c(C)c3c2c1`, for which the TGI in assay [1] was 0.858 µM; in assay [2] it was > 10.1 µM; in assay [4] it was > 14.5 µM; in assay [5] it was 1.18 µM; in assay [6], 2.91 µM; in assay [9] it was 2.13 µM. Besides, the TGI in [7] was 1.3 µM; in assay [8], > 14.3 µM.
Take `CCCCCCCCCCCCCCCCCc1nc(C#N)c(N)o1`: the TGI was > 100 µM in assay [2]; > 100 µM in assay [10]; 52 µM in assay [4]; > 100 µM in assay [6]; > 100 µM in assay [9]; > 100 µM in assay [7]. In addition, the TGI in assay [8] was > 100 µM.
With `N#Cc1ccc(/C=C2\Cc3ccccc3C2=O)cc1`, the TGI in [1], in assay [2], in assay [4], in assay [5], in assay [6] and in assay [9] was > 100 µM in each case. The TGI in assay [7] and in [8] was > 100 µM in each case.
For the compound `O=S(=O)(CC#CCS(=O)(=O)c1ccccc1)c1ccccc1`, the TGI in [1] came out at 5.19 µM; in assay [2], 28.1 µM; in [10], 3.32 µM; in [3], 3.82 µM; in [5], 6.86 µM; in [6], 12.4 µM. Besides, the TGI was 32.9 µM in assay [9], > 100 µM in assay [7] and 14.7 µM in [8].
Consider `COc1ccc(/C=N/NC(=O)c2ccccc2Nc2ccccc2C(=O)N/N=C/c2ccc(OC)c(OC)c2)cc1OC`, for which the TGI in assay [1], in [2], in assay [3], in assay [4], in assay [6] and in assay [9] was > 100 µM throughout. Besides, the TGI in assay [7] and in assay [8] was > 100 µM in each case.
As for `COC(=O)C1(C(=O)OC)CC2=C(S(=O)(=O)c3ccccc3)C[C@@H](C#N)[C@H]2C1`, the TGI in assay [1], in [2], in assay [10], in assay [3], in [5] and in [6] was > 100 µM in each case. Besides, the TGI in [9], in assay [7] and in [8] was > 100 µM each time.
For `O=C(CSCC(=O)N/N=C\c1cc(Br)cc(Br)c1O)N/N=C\c1cc(Br)cc(Br)c1O`, the TGI is > 100 µM in assay [1]; > 100 µM in assay [2]; 34.1 µM in assay [10]; 42.5 µM in assay [3]; 78.8 µM in assay [5]; > 100 µM in [6]. The TGI in assay [9] is > 100 µM; in assay [7] it was > 100 µM; in assay [8], 62 µM.
Take `Cc1cccc2ns[s+]c12`: the TGI in assay [1], in [2], in assay [3], in [4], in assay [5] and in assay [6] was > 100 µM each time. For the same compound, the TGI in assay [9] is > 100 µM; in [7], 32.7 µM; in assay [8], > 100 µM.
For the compound `Clc1ccc(CCn2ccc3ccccc32)c(Cl)c1`, the TGI in assay [1], in assay [2], in assay [3], in [4], in assay [5] and in assay [6] was > 100 µM each time. Further, the TGI in assay [9], in [7] and in assay [8] was > 100 µM throughout.
With `CC1=CC(=O)C[C@]2(C)[C@@H](O)CC(C(C)CO)C[C@@H]12` (stereo partly specified), the TGI in assay [1], in assay [2], in [10], in assay [5], in assay [6] and in assay [9] was > 100 µM each time. In addition, the TGI in assay [7] and in [8] was > 100 µM in each case.
With `Nc1cc(N)c2nc(-c3ccccc3)c(Sc3ccc(F)cc3)nc2c1`, the GI50 was 22.1 µM in assay [1]; 20.8 µM in assay [2]; 22.7 µM in [10]; 28.3 µM in assay [4]; 21.3 µM in assay [5]; 17.6 µM in assay [6]. The GI50 in assay [9] was 20 µM; in [7], 22.8 µM. For the same compound, the TGI in [1] was found to be 47.9 µM; in assay [2], 48.5 µM; in assay [10], 41.2 µM; in assay [4] it was 81.5 µM; in assay [5] it was 40 µM; in assay [6], 35.4 µM. For the same compound, the TGI in [9] amounted to 41.7 µM; in assay [7], 49.6 µM.
In the case of `CC(C)(C)OC(=O)NCCNC(=O)OCc1ccccc1`, the TGI in assay [1], in [2], in assay [3], in assay [4], in assay [5] and in assay [6] was > 100 µM each time. The TGI in [9], in assay [7] and in [8] was > 100 µM each time.
For the compound `CN(C)CCCN1c2ccc3ccccc3c2Sc2cccc(Cl)c21`, the TGI in assay [1] was determined as 3.51 µM; in assay [2] it was 4.28 µM; in assay [3], 23 µM; in [4] it was 3.85 µM; in [5] it was 20.7 µM; in assay [6], 20.3 µM. Besides, the values for the TGI in assay [9], in assay [7] and in assay [8] were 22.7 µM, 4.33 µM and 3.1 µM, respectively.
In the case of `O=c1[nH]/c(=C/c2ccc(OCc3ccccc3)cn2)c(=O)[nH]/c1=C/c1cccnc1`, the total growth inhibition concentration (TGI) in assay [1] was 6.13 µM; in [2], > 36.8 µM; in [10], > 100 µM; in assay [3], > 27.6 µM; in assay [9], > 100 µM; in assay [7] it was > 100 µM. Moreover, the TGI in [8] was > 100 µM.
